Assay results reported in ChEMBL document CHEMBL4414602, “Bipolaricins A-I, Ophiobolin-Type Tetracyclic Sesterterpenes from a Phytopathogenic Bipolaris sp. Fungus” (J Nat Prod, 2019).
Activity calls are given as the source filed them. The calls are words filed in the database; no cut-off is given here.

Tests used:
RAW264.7 [1] = test: Antiinflammatory activity in mouse RAW264.7 cells assessed as inhibition of LPS-induced nitric oxide production pretreated for 2 hrs followed by LPS challenge and measured after 12 hrs by Griess assay; format: functional, cell-based
A549 = test: Cytotoxicity against human A549 cells by MTT assay; format: cell-based
HepG2 = test: Cytotoxicity against human HepG2 cells by MTT assay; format: cell-based
MDA-MB-231 = test: Cytotoxicity against human MDA-MB-231 cells by MTT assay; format: cell-based
SW1990 = test: Cytotoxicity against human SW1990 cells by MTT assay; format: cell-based
RAW264.7 [2] = test: Cytotoxicity against mouse RAW264.7 cells at 40 uM by MTT assay; format: cell-based; conditions: raw264.7, 40 µM
RAW264.7 [3] = test: Antiinflammatory activity in mouse RAW264.7 cells assessed as inhibition of LPS-induced RANTES production at 5 to 10 uM pretreated for 2 hrs followed by LPS challenge and measured after 12 hrs by ELISA; format: functional, cell-based
RAW264.7 [4] = test: Antiinflammatory activity in mouse RAW264.7 cells assessed as inhibition of LPS-induced MIP-1beta production at 5 to 10 uM pretreated for 2 hrs followed by LPS challenge and measured after 12 hrs by ELISA; format: functional, cell-based
RAW264.7 [5] = test: Antiinflammatory activity in mouse RAW264.7 cells assessed as inhibition of LPS-induced IL-1beta production at 5 to 10 uM pretreated for 2 hrs followed by LPS challenge and measured after 12 hrs by ELISA; format: functional, cell-based
RAW264.7 [6] = test: Antiinflammatory activity in mouse RAW264.7 cells assessed as increase of LPS-induced IL-3 production at 5 to 10 uM pretreated for 2 hrs followed by LPS challenge and measured after 12 hrs by ELISA; format: functional, cell-based
RAW264.7 [7] = test: Antiinflammatory activity in mouse RAW264.7 cells assessed as increase in LPS-induced HO-1 protein level pretreated for 2 hrs followed by LPS challenge and measured after 12 hrs by Western blot analysis; format: functional, cell-based
[8] = biological target: T1, 3-hydroxy-3-methylglutaryl-coenzyme A reductase (Homo sapiens, UniProt P04035); test: Inhibition of human HMGR using HMGCoA as substrate measured after 15 mins in presence of NADPH by UV microplate reader analysis
T1 sequence (P04035 whole entry): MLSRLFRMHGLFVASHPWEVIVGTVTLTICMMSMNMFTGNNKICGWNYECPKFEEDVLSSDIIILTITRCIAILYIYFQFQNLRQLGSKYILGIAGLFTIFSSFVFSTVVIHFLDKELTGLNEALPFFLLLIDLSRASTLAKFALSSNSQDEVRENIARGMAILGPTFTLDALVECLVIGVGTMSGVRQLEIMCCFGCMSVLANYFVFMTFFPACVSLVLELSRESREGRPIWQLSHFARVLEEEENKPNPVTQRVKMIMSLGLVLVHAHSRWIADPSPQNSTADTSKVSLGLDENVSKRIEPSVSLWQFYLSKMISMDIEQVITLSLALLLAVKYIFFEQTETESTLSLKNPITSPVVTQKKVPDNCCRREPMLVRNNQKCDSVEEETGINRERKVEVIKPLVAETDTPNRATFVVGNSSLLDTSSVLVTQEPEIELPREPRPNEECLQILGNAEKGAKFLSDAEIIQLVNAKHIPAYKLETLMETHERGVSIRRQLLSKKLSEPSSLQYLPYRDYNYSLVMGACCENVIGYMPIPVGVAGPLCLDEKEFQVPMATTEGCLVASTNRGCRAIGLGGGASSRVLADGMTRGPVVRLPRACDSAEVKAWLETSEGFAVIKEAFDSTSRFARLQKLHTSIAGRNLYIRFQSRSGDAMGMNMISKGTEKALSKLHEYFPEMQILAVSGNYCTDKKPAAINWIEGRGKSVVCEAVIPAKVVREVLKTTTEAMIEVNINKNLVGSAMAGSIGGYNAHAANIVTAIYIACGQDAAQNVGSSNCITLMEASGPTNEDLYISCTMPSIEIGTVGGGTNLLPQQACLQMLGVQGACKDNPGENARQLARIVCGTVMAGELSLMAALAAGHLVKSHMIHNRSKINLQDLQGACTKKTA

[9] = biological target: Transcription factor p65 (Mus musculus) (UniProt Q04207); test: Inhibition of LPS-induced NF-kappaB p65 translocation in mouse RAW264.7 cells at 5 to 10 uM pretreated for 2 hrs followed by LPS challenge measured after 12 hrs by DAPI staining based fluorescence microscopic analysis; format: cell-based
Transcription factor p65 (Mus musculus), sequence (Q04207 whole entry): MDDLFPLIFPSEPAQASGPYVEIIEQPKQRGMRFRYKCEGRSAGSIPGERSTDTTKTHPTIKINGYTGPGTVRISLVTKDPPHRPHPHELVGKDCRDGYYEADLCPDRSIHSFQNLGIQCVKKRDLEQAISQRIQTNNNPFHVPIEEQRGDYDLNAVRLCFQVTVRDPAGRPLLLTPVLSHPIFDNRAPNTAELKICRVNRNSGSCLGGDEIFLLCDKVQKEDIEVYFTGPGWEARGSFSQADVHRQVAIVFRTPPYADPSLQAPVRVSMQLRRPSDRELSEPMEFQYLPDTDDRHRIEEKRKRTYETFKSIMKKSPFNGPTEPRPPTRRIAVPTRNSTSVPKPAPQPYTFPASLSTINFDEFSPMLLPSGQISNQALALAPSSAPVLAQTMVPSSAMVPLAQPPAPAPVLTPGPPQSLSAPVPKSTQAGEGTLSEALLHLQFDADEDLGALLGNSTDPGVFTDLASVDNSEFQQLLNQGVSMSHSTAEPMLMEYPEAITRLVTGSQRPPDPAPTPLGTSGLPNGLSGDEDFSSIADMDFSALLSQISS

RAW264.7 [10] = test: Antiinflammatory activity in mouse RAW264.7 cells assessed as inhibition of LPS-induced TNFalpha production at 5 to 10 uM pretreated for 2 hrs followed by LPS challenge and measured after 12 hrs by ELISA; format: functional, cell-based

| SMILES | IC50 (RAW264.7 [1]) | IC50 (A549) | IC50 (HepG2) | IC50 (MDA-MB-231) | IC50 (SW1990) | Activity (RAW264.7 [2]) | inhibition (RAW264.7 [3]) | inhibition (RAW264.7 [4]) | inhibition (RAW264.7 [5]) | Activity (RAW264.7 [6]) | Activity (RAW264.7 [7]) | IC50 [8] | inhibition [9] | inhibition (RAW264.7 [10]) |
| --- | --- | --- | --- | --- | --- | --- | --- | --- | --- | --- | --- | --- | --- | --- |
| CC1=CC(=O)/C2=C(\CO)[C@@H](O)C[C@@H]3[C@](C)(CC[C@@]34O[C@@H](/C=C(\C)CO)C[C@@H]4C)C[C@H]12 | 19 µM | > 40 µM | > 40 µM | > 40 µM | > 40 µM | Non-Toxic |  |  |  |  |  |  |  |  |
| CC(C)=C[C@H]1C[C@H](C)[C@]2(CC[C@]3(C)C[C@@H]4C(C)=CC(=O)/C4=C(\CO)[C@H](O)C[C@H]32)O1 | 20 µM | > 40 µM | > 40 µM | > 40 µM | > 40 µM | Non-Toxic |  |  |  |  |  |  |  |  |
| CC1=CC(=O)[C@H]2/C(C)=C\C[C@@H]3[C@](C)(CC[C@@]34O[C@@H](/C=C(\C)CO)C[C@@H]4C)C[C@H]12 | > 40 µM | > 40 µM | > 40 µM | > 40 µM | > 40 µM | Non-Toxic |  |  |  |  |  |  |  |  |
| CC(C)=C[C@H]1C[C@H](C)[C@]2(CC[C@]3(C)C[C@@H]4C(C)=CC(=O)[C@H]4/C(C=O)=C\C[C@H]32)O1 [3-ANHYDRO-6-EPI-OPHIOBOLIN A] | 5.1 µM | > 40 µM | > 40 µM | > 40 µM | > 40 µM | Non-Toxic | Active | Active | Active | Active | Dose-dependent effect | 8.4 µM | Active | Active |
| CC(C)=C[C@H]1C[C@H](C)[C@]2(CC[C@]3(C)C[C@@H]4C(C)=CC(=O)/C4=C(\CO)[C@@H](O)C[C@H]32)O1 | 6.7 µM | > 40 µM | > 40 µM | > 40 µM | > 40 µM | Non-Toxic |  |  |  |  |  |  |  |  |
| COc1ccc2c(c1)c(CC(=O)O)c(C)n2C(=O)c1ccc(Cl)cc1 [INDOMETHACIN] | 8.8 µM |  |  |  |  |  |  |  |  |  |  |  |  |  |

More lines, main results first:

| IC50 (RAW264.7 [1]) | SMILES | IC50 (A549) | IC50 (HepG2) | IC50 (MDA-MB-231) | IC50 (SW1990) | Activity (RAW264.7 [2]) | inhibition (RAW264.7 [3]) | inhibition (RAW264.7 [4]) | inhibition (RAW264.7 [5]) | Activity (RAW264.7 [6]) | Activity (RAW264.7 [7]) | IC50 [8] | inhibition [9] | inhibition (RAW264.7 [10]) |
| --- | --- | --- | --- | --- | --- | --- | --- | --- | --- | --- | --- | --- | --- | --- |
| 19 µM | CC1=CC(=O)[C@H]2/C(C=O)=C\C[C@@H]3[C@](C)(CC[C@@]34O[C@@H](/C=C(\C)CO)C[C@@H]4C)C[C@H]12 | > 40 µM | > 40 µM | > 40 µM | > 40 µM | Non-Toxic |  |  |  |  |  |  |  |  |
| > 40 µM | CC(C)=C[C@H]1C[C@H](C)[C@]2(CC[C@]3(C)C[C@H]4[C@H](CC[C@@]4(C)O)/C(CO)=C\C[C@H]32)O1 | > 40 µM | > 40 µM | > 40 µM | > 40 µM | Non-Toxic |  |  |  |  |  |  |  |  |
| > 40 µM | CC1=CC(=O)/C2=C(\CO)CC[C@@H]3[C@](C)(CC[C@@]34O[C@@H](/C=C(\C)CO)C[C@@H]4C)C[C@H]12 | > 40 µM | > 40 µM | > 40 µM | > 40 µM | Non-Toxic |  |  |  |  |  |  |  |  |
| > 40 µM | CC(C)=C[C@H]1C[C@H](C)[C@]2(CC[C@]3(C)C[C@@H]4C(C)=CC(=O)[C@H]4/C(C(=O)O)=C\C[C@H]32)O1 | > 40 µM | > 40 µM | > 40 µM | > 40 µM | Non-Toxic |  |  |  |  |  |  |  |  |
| > 40 µM | CC1=CC(=O)/C2=C(\CO)[C@H](O)C[C@@H]3[C@](C)(CC[C@@]34O[C@@H](/C=C(\C)CO)C[C@@H]4C)C[C@H]12 | > 40 µM | > 40 µM | > 40 µM | > 40 µM | Non-Toxic |  |  |  |  |  |  |  |  |
| > 40 µM | CC(C)=C[C@H]1C[C@H](C)[C@]2(CC[C@]3(C)C[C@@H]4C(CO)=CC(=O)[C@H]4/C(C)=C\C[C@H]32)O1 | > 40 µM | > 40 µM | > 40 µM | > 40 µM | Non-Toxic |  |  |  |  |  |  |  |  |
| > 40 µM | CC(C)=C[C@H]1C[C@H](C)[C@]2(CC[C@]3(C)C[C@@H]4C(C)=CC(=O)/C4=C(\C(=O)O)[C@@H](O)C[C@H]32)O1 | > 40 µM | > 40 µM | > 40 µM | > 40 µM | Non-Toxic |  |  |  |  |  |  |  |  |
